Experimental data from paper PMC5913134, “The IL-33-PIN1-IRAK-M axis is critical for type 2 immunity in IL-33-induced allergic airway inflammation” (Nature Communications, 2018).

Key:
IRAK-M = IRAK-M protein stability, cycloheximide chase; format: cell-based; conditions: PIN1-deficient MEFs (text PIN1 KD, Fig. 4g legend PIN1 KO) co-expressing IRAK-M with PIN1 mutant
Description: Fig. 4 PIN1 increases IRAK-M protein stabilization. a After IRAK-M and GFP were coexpressed in WT and PIN1 KO MEFs for 24 h, cells were split equally into 5 dishes. […] The data were analyzed by a Student’s two-tailed t test and the values are reported as mean ± standard errors of the means (SEM). *- statistical significance (P < 0.05), **- significance (P < 0.01)

[1] = tested on: naive CD4^+ cells co-cultured with BMDCs; test: BMDC / naive CD4+ T cell co-culture TH2 polarization, IL-5 and IL-13 secretion; format: cell-based, C57 B6 mice; conditions: ATRA 5 µM, two days prior to and during co-culture, IL-33 50 ng/ml
Description: Supplementary Figure 7. IRAK-M KO or Pin1 KO derived bone marrow dendritic cells attenuates Naïve TH2 cell differentiation upon IL-33 induction in co culture experiment. Naïve CD4+ T cells isolated from C57 B6 mice were cultured with or without IL-33 (50ng/ml) and BMDCs isolated from WT, IRAK-M KO (a) or Pin1 KO mice (b) in a 1:5 ratio for 5 days with no antigen being added. In some cases as indicated 5 µM of ATRA was added to the medium two days prior to T cell co culturing and during the experiment. Supernatants were analyzed for cytokines on day 5. The data were analyzed by a Student's two-tailed t test and the values are reported as mean ± standard errors of the means (SEM). *- statistical significance (P<0.05), **- significance (P<0.01).

[2] = tested on: Il6, Csf3, Cxcl2 and Ccl5 expression in DC2.4 cells; test: qRT-PCR of Il6, Csf3, Cxcl2 and Ccl5 in DC2.4 cells; format: cell-based, C57BL/6; conditions: for effect of ATRA on target gene expression: DC2.4, IL-33
Description: Also as indicated, some cells were pretreated for 3 days with 5 μM or 10 μM of ATRA before IL-33 induction. e Relative gene expression of Il6, Csf3, Cxcl2 and Ccl5 in the different samples as in d normalized to actin. f IRAK-M was stably expressed in pLKO or TET on shPin1 expressing cells, followed by induction with IL-33, before western blot to examine protein expression of IRAK-M, PIN1 and tubulin as well as g qRT-PCR to determine the relative gene expression for Il6, Csf3, Cxcl2 and Ccl5 in the different samples.
SYBR Green PCR Master Mix (Applied Biosystems, Foster City, CA) was used for two-step real-time RT-PCR analysis on an Applied Biosystems StepOnePlus Real Time PCR instrument. […] Expression value of the targeted gene in a given sample was normalized to the corresponding expression of Actin. The 2^–ΔΔCt method was used to calculate relative expression of the targeted genes.

PIN1 = PIN1 expression in DC2.4 cells; format: cell-based, C57BL/6; conditions: ATRA 5 or 10 μM, 3 days pretreatment, before IL-33, DC2.4

| Compound | effect on IRAK-M half-life (IRAK-M) | IL-33-induced IL-5 and IL-13 secretion, inhibition by ATRA [1] | target gene expression (Il6, Csf3, Cxcl2, Ccl5) ([2]; ATRA, even at 5 µM, IRAK-M stably expressing DC2.4 cells, IL-33) | effect of ATRA on target gene expression ([2]; IRAK-M mutants S110E and P111A) | effect of ATRA on target gene expression ([2]; P111A mutant, 10 µM ATRA) | effect of ATRA on target gene expression ([2]; S110E mutant, 10 µM ATRA) | PIN1 expression (PIN1) |
| --- | --- | --- | --- | --- | --- | --- | --- |
| W34A: PIN1 WW domain mutant W34A (binding defective) | neither binding nor isomerizing mutants had any effect | – | – | – | – | – | – |
| K63A: PIN1 PPIase domain mutant K63A (catalytically inactive) | neither binding nor isomerizing mutants had any effect | – | – | – | – | – | – |
| CC1=C(/C=C/C(C)=C/C=C/C(C)=C/C(=O)O)C(C)(C)CCC1 [ATRA, all-trans retinoic acid] | – | significantly attenuated | inhibited target gene expression | highly attenuated | completely abolished | some reduction in gene expression still persisted | reduced PIN1 expression |
